Experimental data reported in US20250114511A1, “BLOOD PERFUSION DEVICE TO REDUCE SECONDARY INFECTION IN HOSPITAL” (SEOUL NATIONAL UNIVERSITY R&DB FOUNDATION, priority 2022, published 2025).
Entries after “also recorded” stand apart in the source; their conditions may differ. Read-outs that look alike come from different tables or passages of the source.

Assays:
[1] = system: PMNs isolated from healthy volunteers; test: Chemotaxis to 100 nM fMLF of healthy volunteer PMNs exposed to septic shock patient plasma; type: cell-based, human; details: 10 μM CsH
Procedure: The effect of bead-anti-mtFP mixture treatment on PMN chemotaxis rescue was analyzed. PMS was isolated from blood samples obtained from healthy volunteers and exposed to untreated plasma from septic shock patients for 30 minutes in a 10-rpm rotator at 37° C. […] In order to estimate the capacity of non-FPR1-mediated PMN chemotaxis, separate PMNs exposed to bead anti-mtFP mixture-treated plasma were pretreated with 10 μM CsH 15 minutes prior to the chemotaxis experiment.
The inventors of the present disclosure investigated the chemotactic restoration effect of the anti-mtFP cocktail on PMNs by exposing PMNs from healthy volunteers to the plasma of septic shock patients treated with the anti-mtFP cocktail and then comparing PMN chemotaxis with plasma that had not received the anti-mtFP cocktail treatment.

[2] = system: PMNs isolated from septic shock patients with secondary infection; test: Chemotaxis to 100 nM fMLF of PMNs from septic shock patients with secondary infection exposed to their own plasma; type: cell-based, human; details: 50 pg/mL recombinant LTB4 added to bead-anti-mtFP mixture treated plasma, 90 minutes
[3] = system: human polymorphonuclear cells (PMN); details: previous studies of the inventors; cited from earlier work
FPR1 = FPR1 expression on PMN membranes by flow cytometry; type: cell-based, human; details: 100 nM ND6 for 30 minutes
Procedure: FPR1 expression on PMN membranes and the amount of CaMK2 in the homogenized PMN pellet were also detected by flow cytometry. In order to detect FPR1 on PMN membranes, PMNs (1.0×10^6 in 200 μL) were incubated with FITC-conjugated anti-human FPR1 antibody (2 μL, FAB3744F, R&D Systems, Minneapolis, MN) for 30 minutes at room temperature in the dark. FITC-conjugated mouse IgG2a, κ isotype control antibody (400210, BioLegend, San Diego, CA) was used as a negative control. After washing twice, fluorescence was measured. APC-conjugated anti-CaMK2 antibody (2 μL, ab225178, Abcam, Cambridge, UK) was used to detect the amount of CaMK2 in 200 μL of homogenized PMN pellet obtained by homogenization of 1.0×10^6/l mL PMN for 30 seconds at 4° C. and centrifugation at 20,000 g for 10 minutes. FPR1 expression in PMN membranes and the amount of CaMK2 in homogenized PMN pellets were quantified as mean fluorescence intensity (MFI) by using FlowJo version 10.0 (FlowJo, LLC, Ashland, OR). At least three independent experiments were performed.

[4] = system: human polymorphonuclear cells (PMN)
Procedure: PMN chemotaxis was assessed by using multiScreen 96-well plates consisting of a 3-μm pore membrane (MAMIC3S10, Merck Millipore, Darmstadt, Germany). After preplanned treatment with ND6 or patient plasma, isolated human PMNs were centrifuged at 200 g for 10 minutes at 4° C. Afterwards, the PMN pellet was resuspended in Dulbecco's modified Eagle medium (DMEM, 11885-084, Thermo Fisher) containing 10% fetal bovine serum (FBS, F2442, Sigma-Aldrich). Before use, FBS was inactivated by heating at 56° C. for 1 hour. PMNs were placed in the upper chamber of the plate (0.1×10^6 PMNs at 75 μL per well), and medium containing 100 nM fMLF was placed in the lower chamber (150 μL per well). In medium without ND6 or fMLF, 0.1% DMSO was added.
Plates were incubated for 60 minutes in an incubator at 37° C. with 5% carbon dioxide (CO2). […] Afterwards, the contents were transferred to a 96-well plate, and fluorescence was measured at an excitation/emission wavelength of 480/520 nm with a cut-off of 515 nm. The number of migrated PMNs was calculated by using a standard curve derived from known PMN numbers. […]
After exposure to 100 nM ND6 for 30 minutes, PMNs were centrifuged at 220 g for 10 minutes at 4° C., and the supernatant was discarded. […] PMN chemotaxis at 30 and 90 minutes was measured as the number of PMNs migrated during 60-minute incubation between 30 and 90 minutes and 90 and 150 minutes, respectively.

[5] = molecular target: T1, formyl peptide receptor 1 (FPR1) (Homo sapiens, UniProt P21462); test: PMN intracellular calcium mobilization (ER calcium depletion and calcium influx, fura2-AM)
T1 sequence (P21462 1-350): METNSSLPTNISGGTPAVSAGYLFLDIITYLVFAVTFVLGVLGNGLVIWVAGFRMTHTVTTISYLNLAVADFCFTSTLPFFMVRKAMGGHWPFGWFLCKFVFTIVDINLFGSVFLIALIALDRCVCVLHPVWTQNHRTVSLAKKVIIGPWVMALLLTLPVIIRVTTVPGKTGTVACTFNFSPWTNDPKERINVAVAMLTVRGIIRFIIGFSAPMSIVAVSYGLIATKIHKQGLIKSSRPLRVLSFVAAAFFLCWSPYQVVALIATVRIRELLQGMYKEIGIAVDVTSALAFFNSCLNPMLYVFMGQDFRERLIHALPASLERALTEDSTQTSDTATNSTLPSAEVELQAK
Procedure: Calcium mobilization within PMN cells was measured according to the following method. The separated PMN pellet was resuspended in pH 7.4 hydroxyethyl piperazine ethane sulfonic acid (HEPES) buffer solution. This HEPES buffer solution includes 20 mM HEPES, 140 mM NaCl, 5 mM potassium chloride (KCl), 1 mM magnesium chloride (MgCl2), 1 mM calcium chloride (CaCl2)), 10 mM glucose and 0.1% bovine serum albumin (BSA, A2058 Sigma-Aldrich). PMNs were loaded with fura2-AM (F1221, Thermo Fisher, Waltham, MA) for 45 minutes at 37° C.
Fluorescence was measured at 505 nm with 340/380 nm dual-wavelength excitation at 37° C. by using a spectrofluorometer (FluoroMax Plus-C, Horiba, Ltd., Kyoto, Japan). For the quantitative measurement of endoplasmic reticulum (ER) calcium depletion, PMNs were centrifuged at 200 g for 10 minutes at 4° C. PMN pellets were then resuspended in a calcium-free HEPES buffer solution including 0.3 mM ethylene glycol-bis(2-aminoethylether)-N,N,N′,N′-tetraacetic acid (EGTA, E3889, Sigma-Aldrich, St. Louis, MO), and stimulated with ND6 and fMLF or with ND6 alone. 0.1% dimethyl sulfoxide (DMSO) was added to the medium without ND6 or fMLF. After endoplasmic reticulum calcium was depleted, 1.8 mM CaCl2) was added to induce cytoplasmic calcium influx. Endoplasmic reticulum calcium depletion and calcium influx were assessed by measuring the 340 nm/380 nm ratio and quantified as AUC over 150 seconds (AUC150) and AUC over 100 seconds (AUC100), respectively. […]
In order to investigate which steps of intracellular calcium mobilization stimulated by FPR1 agonists directly correlate with PMN chemotaxis, the inventors of the present disclosure quantitatively measured the amounts of endoplasmic reticulum (ER) calcium depletion and subsequent calcium influx into the cytoplasm in isolated human PMNs obtained from healthy volunteers. […] The area under the curve (AUC) of ER calcium depletion over 150 seconds was calculated to quantify the amount of ER calcium depletion stimulated by ND6 (AUC150 primary) and fMLF (AUC150 secondary), respectively. […]

C/C=C/C[C@@H](C)[C@@H](O)[C@H]1C(=O)N[C@@H](CC)C(=O)N(C)CC(=O)N(C)[C@@H](CC(C)C)C(=O)N[C@@H](C(C)C)C(=O)N(C)[C@@H](CC(C)C)C(=O)N[C@@H](C)C(=O)N[C@H](C)C(=O)N(C)[C@@H](CC(C)C)C(=O)N(C)[C@@H](CC(C)C)C(=O)N(C)[C@H](C(C)C)C(=O)N1C [CsH, cyclosporine H]
chemotaxis of CsH-treated PMNs versus CsH-free PMNs exposed to untreated plasma [1]: not significantly different

CCCCC/C=C\C[C@@H](O)/C=C/C=C/C=C\[C@@H](O)CCCC(=O)O [recombinant LTB4, leukotriene B4]
restoration of PMN chemotaxis compared to PMN exposed to untreated plasma [2]: effectively restored PMN chemotaxis | restoration of PMN chemotaxis compared to PMN exposed to untreated plasma ([2]; listed as recombinant leukotriene B4 (LTB4)): significantly restored PMN chemotaxis

N-formyl-methionine-leucine-phenylalanine [fMLF]
most potent concentration to induce FPR1-mediated PMN chemotaxis [3]: 100 nM

N-formyl-methionine-methionine-tyrosine-alanine-leucine-phenylalanine [ND6]
FPR1 expression in PMN membranes (MFI) (FPR1): reduced FPR1 expression | PMN chemotaxis in response to 100 nM fMLF ([4]; 100 nM ND6 for 30 minutes): inhibited | PMN chemotaxis in response to 100 nM fMLF ([4]; ND6-treated PMNs, 100, 10, 5 nM): dose-dependently inhibited | ER calcium depletion and calcium influx in response to 100 nM fMLF ([5]; 100 nM ND6 for 30 minutes or more): inhibited; also recorded: did not completely inhibit | inhibition of fMLF-stimulated secondary ER calcium depletion and subsequent calcium influx ([5]; 100 nM, 10 nM, 5 nM ND6, then 100 nM fMLF): dose-dependently inhibited
